In US20110158930A1, “METHOD FOR TREATMENT OF IRRITABLE BOWEL SYNDROME” (ASTELLAS PHARMA INC., priority 2008, published 2011):

Tests used:
[1] = tested on: restraint stress induced diarrhea in rats; assay: Restraint stress induced diarrhea in rats; format: in vivo, rat
Experimental: Ramosetron hydrochloride, polycarbophil calcium (Astellas Pharma, Inc.) and 5-HT creatinine sulfate (Wako Pure Chemical Industries Ltd.) were used. Ramosetron was dissolved and diluted with distilled water. Polycarbophil was prepared by decalcification of polycarbophil calcium according to a reported method (Yamada et al., Iyakuhin Kenkyu 1997; 28: 23-32), and suspended and diluted with distilled water. In this experiment, ramosetron was used and expressed as its hydrochloride form. All the test substances were orally administered in a dose of 12 mL/kg. In combined administration of ramosetron and polycarbophil, a mixed solution of the two drugs was prepared and this was orally administered. Male Wistar rats (13 to 14-week age, Japan SLC Inc.) that had been fasted overnight were stressed by confinement in a restraint stress cage (KN-468, Natsume Seisakusho Co., Ltd.) (Hirata et al., Neurogastroenterol. Motil. 2008; 20: 557-565). The condition of the stool excreted within 3 hours after the initiation of the restraint stress was observed, and the occurrence of diarrhea was defined in case where the excreted stool condition was wet, amorphous and muddy stool. […] All the results were statistically analyzed using Statistical Analysis System ver. […] In this experiment, all the data were expressed as two significant figures. In the investigation using the diarrheal models, the incidence of diarrhea was calculated in each group, then the significance was evaluated according to the Fisher's exact test, and if desired, the significance level was corrected according to the Bonferroni's method for consideration of multiplicity (the case of P<0.05 or P<0.05/3 was given significance). In the experiments of spontaneous defecation, the mean value of total stool weight±SEM was calculated in every group, and the significance was evaluated according to Student's t-test (between two groups) or Dunnett's multiple comparison test (between multiple groups) (the case of P<0.05 was given significance).

[2] = tested on: 5-HT induced diarrhea in mice; assay: 5-HT induced diarrhea in mice; format: in vivo, mouse
Experimental: (§1) Ramosetron hydrochloride, polycarbophil calcium (Astellas Pharma, Inc.) and 5-HT creatinine sulfate (Wako Pure Chemical Industries Ltd.) were used. Ramosetron was dissolved and diluted with distilled water. Polycarbophil was prepared by decalcification of polycarbophil calcium according to a reported method (Yamada et al., Iyakuhin Kenkyu 1997; 28: 23-32), and suspended and diluted with distilled water. In this experiment, ramosetron was used and expressed as its hydrochloride form. All the test substances were orally administered in a dose of 12 mL/kg. In combined administration of ramosetron and polycarbophil, a mixed solution of the two drugs was prepared and this was orally administered.
Each test substance was orally administered to male ICR mice (9-week age, Clea Japan, Inc.), and after 2 hours, 5-HT (3 mg/kg) was intraperitoneally administered (Miyata et al., J. Pharmacol. Exp. Ther. 1992; 261: 297-303). The mice were put individually in separate cages, and the condition of the stool excreted within 3 hours after the 5-HT administration was observed. The occurrence of diarrhea was defined in case where the excreted stool condition was loose stool (wet pasty stool) or watery stool (amorphous muddy stool). […]
All the results were statistically analyzed using Statistical Analysis System ver. […] In this experiment, all the data were expressed as two significant figures. In the investigation using the diarrheal models, the incidence of diarrhea was calculated in each group, then the significance was evaluated according to the Fisher's exact test, and if desired, the significance level was corrected according to the Bonferroni's method for consideration of multiplicity (the case of P<0.05 or P<0.05/3 was given significance). In the experiments of spontaneous defecation, the mean value of total stool weight±SEM was calculated in every group, and the significance was evaluated according to Student's t-test (between two groups) or Dunnett's multiple comparison test (between multiple groups) (the case of P<0.05 was given significance).

[3] = tested on: spontaneous defecation in mice; assay: Spontaneous defecation in mice (total stool weight); format: in vivo, mouse; conditions: ddy mice
Experimental: as §1
In this experiment, male ddy mice (Nippon SLC, 5-week age) were used. Spontaneous defecation was measured individually in separate cages with a wire flooring under free drinking and free feeding condition. […]
The effect of single administration of ramosetron or polycarbophil alone was investigated with the following group composition, and the total stool weight in 2 hours after administration of each test substance was measured (n=10 in every group): Distilled water administration group (control group); ramosetron administration group (10, 30 and 100 μg/kg); polycarbophil administration group (100, 300 and 1,000 mg/kg). […]
All the results were statistically analyzed using Statistical Analysis System ver. […]

Cn1cc(C(=O)[C@@H]2CCc3nc[nH]c3C2)c2ccccc21 [ramosetron, (−)-(R)-5-[(1-methyl-1H-indol-3-yl)carbonyl]-4,5,6,7-tetrahydro-1H-benzimidazole]
incidence of diarrhea ([1]; ramosetron 0.3 μg/kg p.o. alone, 4 hours before restraint stress, stool within 3 hours, Wistar rats, n=24): 46% | effect on restraint stress induced diarrhea ([1]; ramosetron 0.1 to 1 μg/kg p.o. alone, n=12): dose-dependently inhibited | significance of inhibition of restraint stress induced diarrhea vs distilled water ([1]; ramosetron 0.3 and 1 μg/kg p.o. alone, n=12, Fisher's exact test): significant inhibitory effect | incidence of diarrhea ([2]; ramosetron 30 μg/kg p.o. alone, 2 hours before 5-HT 3 mg/kg i.p., stool within 3 hours, ICR mice, n=24): 58% | effect on 5-HT induced diarrhea ([2]; ramosetron 10 to 100 μg/kg p.o. alone, n=12): dose-dependently inhibited | significance of inhibition of 5-HT induced diarrhea vs distilled water ([2]; ramosetron 30 and 100 μg/kg p.o. alone, n=12, Fisher's exact test): significant inhibitory effect | total stool weight in 2 hours vs distilled water group ([3]; ramosetron 100 μg/kg p.o. single administration alone, n=10, Dunnett's test): significant reduction in the total stool weight | effect on spontaneous defecation (total stool weight in 2 hours) ([3]; ramosetron 10 to 100 μg/kg p.o. single administration alone, n=10): dose-dependently inhibited spontaneous defecation
